{"source": "ChEMBL document CHEMBL5465560", "about": "“Selectivity Literature for EUbOPEN Chemogenomic Library” (2024)", "key": {"[1]": {"biological_target": "Serine/threonine-protein kinase Nek7 (Homo sapiens) (UniProt Q8TDX7)", "sequence (Q8TDX7 whole entry, looked up)": "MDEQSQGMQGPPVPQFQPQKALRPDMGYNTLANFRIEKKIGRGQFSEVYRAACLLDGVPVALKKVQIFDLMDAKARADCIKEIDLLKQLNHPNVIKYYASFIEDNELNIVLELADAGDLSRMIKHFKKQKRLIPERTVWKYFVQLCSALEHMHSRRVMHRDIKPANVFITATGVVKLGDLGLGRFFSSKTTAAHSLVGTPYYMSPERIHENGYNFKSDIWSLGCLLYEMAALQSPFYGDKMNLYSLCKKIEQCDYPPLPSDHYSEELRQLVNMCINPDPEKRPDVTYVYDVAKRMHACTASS", "assay": "Selectivity interaction (Ambit KINOMEscan and KiNATiv profiling in Jurkat cells) EUB0000090b NEK7", "assay_type": "cell-based", "conditions": "at 1 µM"}, "[2]": {"biological_target": "Non-receptor tyrosine-protein kinase TYK2 (Homo sapiens, UniProt P29597)", "sequence (P29597 whole entry)": "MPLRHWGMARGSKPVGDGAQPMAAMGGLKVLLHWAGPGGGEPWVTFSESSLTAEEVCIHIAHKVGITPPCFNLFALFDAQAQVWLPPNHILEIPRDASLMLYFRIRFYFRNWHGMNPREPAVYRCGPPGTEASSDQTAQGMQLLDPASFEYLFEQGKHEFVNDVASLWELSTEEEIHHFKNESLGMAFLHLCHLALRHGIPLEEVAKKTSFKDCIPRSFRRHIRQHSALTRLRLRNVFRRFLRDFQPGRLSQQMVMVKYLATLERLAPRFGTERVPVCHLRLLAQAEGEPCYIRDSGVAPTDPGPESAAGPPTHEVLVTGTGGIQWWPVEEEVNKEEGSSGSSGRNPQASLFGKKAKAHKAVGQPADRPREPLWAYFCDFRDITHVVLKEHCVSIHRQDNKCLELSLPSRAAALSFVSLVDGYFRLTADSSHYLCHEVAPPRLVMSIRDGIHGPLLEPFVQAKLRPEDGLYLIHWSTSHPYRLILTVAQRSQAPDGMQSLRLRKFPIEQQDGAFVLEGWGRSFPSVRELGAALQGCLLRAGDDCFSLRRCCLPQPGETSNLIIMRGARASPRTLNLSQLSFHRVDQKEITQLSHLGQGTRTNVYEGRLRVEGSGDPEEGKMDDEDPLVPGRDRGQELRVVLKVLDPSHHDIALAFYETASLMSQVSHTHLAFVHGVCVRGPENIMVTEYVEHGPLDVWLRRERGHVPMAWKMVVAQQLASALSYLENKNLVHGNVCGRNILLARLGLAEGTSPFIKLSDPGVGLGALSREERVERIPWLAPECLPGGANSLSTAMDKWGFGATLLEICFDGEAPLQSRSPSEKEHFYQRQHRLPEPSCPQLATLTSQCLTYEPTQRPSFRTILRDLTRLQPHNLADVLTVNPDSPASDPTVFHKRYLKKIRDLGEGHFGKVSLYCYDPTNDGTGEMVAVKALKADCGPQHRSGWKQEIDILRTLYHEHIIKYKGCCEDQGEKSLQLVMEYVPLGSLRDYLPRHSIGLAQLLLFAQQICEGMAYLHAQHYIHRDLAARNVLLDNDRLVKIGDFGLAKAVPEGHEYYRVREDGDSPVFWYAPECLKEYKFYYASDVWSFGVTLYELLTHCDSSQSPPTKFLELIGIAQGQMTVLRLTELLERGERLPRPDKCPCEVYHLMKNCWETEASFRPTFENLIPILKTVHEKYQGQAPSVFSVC", "assay": "Selectivity interaction (KinomeScan (DiscoverX)) EUB0000618a TYK2", "conditions": "at 10 µM"}, "[3]": {"biological_target": "Dual specificity tyrosine-phosphorylation-regulated kinase 1B (Homo sapiens, UniProt Q9Y463)", "assay": "Selectivity interaction (KinomeScan (DiscoverX)) EUB0000607a DYRK1B", "conditions": "at 10 µM"}, "[4]": {"test_system": "Proto-oncogene tyrosine-protein kinase receptor Ret (Homo sapiens), P07949 [V804M]", "sequence (P07949 whole entry V804M)": "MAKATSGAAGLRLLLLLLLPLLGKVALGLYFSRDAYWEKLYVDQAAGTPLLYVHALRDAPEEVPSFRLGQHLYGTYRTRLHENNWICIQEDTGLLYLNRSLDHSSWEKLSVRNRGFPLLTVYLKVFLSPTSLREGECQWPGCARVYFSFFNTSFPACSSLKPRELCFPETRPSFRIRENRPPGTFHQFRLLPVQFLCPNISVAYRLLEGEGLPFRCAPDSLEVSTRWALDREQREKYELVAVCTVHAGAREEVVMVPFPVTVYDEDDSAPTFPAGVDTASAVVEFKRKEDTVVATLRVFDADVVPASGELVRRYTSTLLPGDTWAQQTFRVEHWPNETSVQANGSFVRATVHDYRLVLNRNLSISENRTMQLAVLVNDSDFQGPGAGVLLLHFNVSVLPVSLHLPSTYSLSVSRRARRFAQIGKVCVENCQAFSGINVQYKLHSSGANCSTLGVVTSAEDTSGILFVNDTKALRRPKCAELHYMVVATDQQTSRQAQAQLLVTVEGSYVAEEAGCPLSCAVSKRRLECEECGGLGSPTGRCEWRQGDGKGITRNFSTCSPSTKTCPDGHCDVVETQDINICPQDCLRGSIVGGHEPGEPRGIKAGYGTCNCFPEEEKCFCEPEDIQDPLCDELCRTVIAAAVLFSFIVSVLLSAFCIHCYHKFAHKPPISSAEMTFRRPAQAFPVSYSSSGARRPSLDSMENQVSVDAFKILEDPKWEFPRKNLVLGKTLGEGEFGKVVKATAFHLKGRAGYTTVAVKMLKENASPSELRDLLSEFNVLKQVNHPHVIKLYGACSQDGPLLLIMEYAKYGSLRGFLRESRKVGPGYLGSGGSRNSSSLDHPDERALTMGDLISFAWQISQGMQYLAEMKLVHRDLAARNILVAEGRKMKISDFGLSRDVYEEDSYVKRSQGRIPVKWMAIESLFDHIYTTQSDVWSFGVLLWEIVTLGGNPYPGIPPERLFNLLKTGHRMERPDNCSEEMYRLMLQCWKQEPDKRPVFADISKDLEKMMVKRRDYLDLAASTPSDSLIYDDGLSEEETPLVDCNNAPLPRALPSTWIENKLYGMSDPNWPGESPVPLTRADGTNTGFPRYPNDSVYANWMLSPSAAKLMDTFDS", "assay": "(§1) Selectivity interaction (KinomeScan (DiscoverX)) EUB0000607a RET", "conditions": "at 10 µM"}, "[5]": {"biological_target": "Proto-oncogene tyrosine-protein kinase receptor Ret (Homo sapiens, UniProt P07949)", "sequence (P07949 whole entry)": "as the sequence (P07949 whole entry V804M) above, with M804V counted along it", "assay": "as §1", "conditions": "at 10 µM"}, "[6]": {"test_system": "Proto-oncogene tyrosine-protein kinase receptor Ret (Homo sapiens), P07949 [M918T]", "sequence (P07949 whole entry M918T)": "as the sequence (P07949 whole entry V804M) above, with M804V, M918T counted along it", "assay": "as §1", "conditions": "at 10 µM"}, "[7]": {"biological_target": "Calcium/calmodulin-dependent protein kinase type 1D (Homo sapiens) (UniProt Q8IU85)", "sequence (Q8IU85 whole entry, looked up)": "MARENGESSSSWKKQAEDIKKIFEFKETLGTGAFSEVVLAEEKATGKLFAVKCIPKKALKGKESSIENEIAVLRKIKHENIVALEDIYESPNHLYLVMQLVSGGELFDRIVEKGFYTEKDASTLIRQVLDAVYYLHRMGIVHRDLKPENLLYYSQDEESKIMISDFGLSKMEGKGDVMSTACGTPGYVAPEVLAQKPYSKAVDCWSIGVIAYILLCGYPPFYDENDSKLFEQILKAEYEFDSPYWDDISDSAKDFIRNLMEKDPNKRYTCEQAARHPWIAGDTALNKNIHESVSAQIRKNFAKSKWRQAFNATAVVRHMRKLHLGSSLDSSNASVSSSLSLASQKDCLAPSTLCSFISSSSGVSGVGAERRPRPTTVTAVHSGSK", "assay": "Selectivity interaction (ActivX KiNativ screen (ex vivo kinase selectivity in human PBMCs)) EUB0001619a CAMK1D", "assay_type": "cell-based", "conditions": "PBMC, at 1 µM"}, "[8]": {"biological_target": "Cyclin-dependent kinase 16 (Homo sapiens) (UniProt Q00536)", "sequence (Q00536 whole entry)": "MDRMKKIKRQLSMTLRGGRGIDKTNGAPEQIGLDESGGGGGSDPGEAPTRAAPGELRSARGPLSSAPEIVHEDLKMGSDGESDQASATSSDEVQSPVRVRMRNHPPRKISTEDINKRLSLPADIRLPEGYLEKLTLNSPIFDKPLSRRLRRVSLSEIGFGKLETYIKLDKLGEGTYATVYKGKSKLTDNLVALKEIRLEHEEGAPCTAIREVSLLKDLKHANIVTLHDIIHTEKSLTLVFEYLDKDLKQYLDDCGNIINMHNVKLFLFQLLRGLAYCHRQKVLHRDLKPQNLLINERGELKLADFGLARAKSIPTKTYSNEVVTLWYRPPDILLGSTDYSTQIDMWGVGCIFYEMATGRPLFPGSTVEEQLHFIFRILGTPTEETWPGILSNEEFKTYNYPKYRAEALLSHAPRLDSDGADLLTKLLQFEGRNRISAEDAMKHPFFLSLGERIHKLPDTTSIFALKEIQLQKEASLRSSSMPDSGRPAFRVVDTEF", "assay": "Selectivity interaction (Kinase panel (KiNativ target engagement assay in Jurkat cells)) EUB0001635a CDK16", "assay_type": "cell-based", "conditions": "Selectivity number of off-targets 0.0, Selectivity number of targets 233.0, Source Knowledge https://www.sciencedirect.com/science/article/pii/S2451945619300674?via%3Dihub, at 1 µM"}, "[9]": {"biological_target": "Histone-lysine N-methyltransferase SETDB1 (Homo sapiens) (UniProt Q15047)", "assay": "Selectivity interaction (Transferase panel (protein, RNA, and DNA methyltransferases. and EP300 (acetyltransferase))) EUB0000270b SETDB1"}, "[10]": {"biological_target": "T1, Beta-adrenergic receptor kinase 1 (Homo sapiens) (UniProt P25098)", "T1 sequence (whole entry)": "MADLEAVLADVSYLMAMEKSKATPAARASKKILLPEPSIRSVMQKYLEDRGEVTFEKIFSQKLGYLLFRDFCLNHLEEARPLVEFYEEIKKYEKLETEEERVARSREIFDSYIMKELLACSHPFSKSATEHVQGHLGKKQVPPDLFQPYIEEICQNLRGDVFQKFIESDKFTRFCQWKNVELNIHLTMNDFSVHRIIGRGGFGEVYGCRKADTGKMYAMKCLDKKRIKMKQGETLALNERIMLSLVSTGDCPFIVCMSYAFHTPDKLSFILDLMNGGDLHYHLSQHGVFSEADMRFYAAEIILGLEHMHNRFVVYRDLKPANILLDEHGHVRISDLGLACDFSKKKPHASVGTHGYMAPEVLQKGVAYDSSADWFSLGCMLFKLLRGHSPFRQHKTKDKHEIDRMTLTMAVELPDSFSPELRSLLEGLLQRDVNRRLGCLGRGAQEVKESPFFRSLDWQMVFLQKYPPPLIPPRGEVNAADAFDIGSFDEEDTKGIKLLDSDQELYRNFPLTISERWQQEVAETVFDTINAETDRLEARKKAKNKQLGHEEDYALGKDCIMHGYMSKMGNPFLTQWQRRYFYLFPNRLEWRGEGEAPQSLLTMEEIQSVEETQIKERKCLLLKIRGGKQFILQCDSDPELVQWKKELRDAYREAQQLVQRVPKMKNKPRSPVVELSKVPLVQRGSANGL", "assay": "Selectivity interaction (KinomeScan (DiscoverX)) EUB0000229b ADRBK1", "conditions": "at 10 µM"}, "[11]": {"biological_target": "Vascular endothelial growth factor receptor 1 (Homo sapiens) (UniProt P17948)", "sequence (P17948 whole entry)": "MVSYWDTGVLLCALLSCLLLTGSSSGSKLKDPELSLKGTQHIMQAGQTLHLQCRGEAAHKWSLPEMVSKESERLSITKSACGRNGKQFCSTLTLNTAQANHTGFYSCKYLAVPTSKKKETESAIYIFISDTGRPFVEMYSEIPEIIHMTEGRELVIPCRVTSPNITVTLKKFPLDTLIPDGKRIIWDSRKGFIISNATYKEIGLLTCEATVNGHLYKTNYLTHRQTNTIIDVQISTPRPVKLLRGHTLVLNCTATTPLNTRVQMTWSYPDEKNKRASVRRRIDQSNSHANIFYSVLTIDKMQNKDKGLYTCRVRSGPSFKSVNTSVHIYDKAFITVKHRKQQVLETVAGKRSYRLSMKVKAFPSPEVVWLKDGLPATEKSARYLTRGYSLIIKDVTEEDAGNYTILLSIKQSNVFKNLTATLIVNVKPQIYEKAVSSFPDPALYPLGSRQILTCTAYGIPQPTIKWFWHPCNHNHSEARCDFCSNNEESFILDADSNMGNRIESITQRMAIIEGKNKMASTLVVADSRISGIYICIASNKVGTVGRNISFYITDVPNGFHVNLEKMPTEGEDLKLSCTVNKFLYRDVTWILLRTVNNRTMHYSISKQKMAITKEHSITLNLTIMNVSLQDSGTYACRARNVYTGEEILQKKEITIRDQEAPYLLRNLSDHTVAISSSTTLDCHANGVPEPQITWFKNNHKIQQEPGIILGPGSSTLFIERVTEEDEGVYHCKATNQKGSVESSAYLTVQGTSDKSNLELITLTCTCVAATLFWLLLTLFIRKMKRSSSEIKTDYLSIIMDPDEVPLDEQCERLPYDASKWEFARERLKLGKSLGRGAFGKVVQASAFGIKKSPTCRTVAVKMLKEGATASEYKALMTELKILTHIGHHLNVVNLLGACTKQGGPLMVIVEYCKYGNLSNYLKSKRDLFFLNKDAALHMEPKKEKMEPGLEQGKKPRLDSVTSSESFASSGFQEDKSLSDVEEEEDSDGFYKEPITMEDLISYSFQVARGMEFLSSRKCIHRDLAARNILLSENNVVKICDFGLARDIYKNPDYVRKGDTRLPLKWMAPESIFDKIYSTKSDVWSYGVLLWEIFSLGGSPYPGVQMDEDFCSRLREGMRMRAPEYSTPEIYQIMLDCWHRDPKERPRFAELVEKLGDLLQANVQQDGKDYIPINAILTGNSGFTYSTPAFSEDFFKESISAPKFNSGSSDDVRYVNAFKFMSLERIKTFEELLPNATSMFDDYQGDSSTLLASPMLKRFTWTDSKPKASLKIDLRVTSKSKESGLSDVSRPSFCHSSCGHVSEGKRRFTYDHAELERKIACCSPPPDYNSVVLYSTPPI", "assay": "Selectivity interaction (KinomeScan (DiscoverX)) EUB0000666a FLT1", "conditions": "at 10 µM"}, "[12]": {"biological_target": "T2, Mitogen-activated protein kinase kinase kinase 2 (Homo sapiens) (UniProt Q9Y2U5)", "T2 sequence (whole entry)": "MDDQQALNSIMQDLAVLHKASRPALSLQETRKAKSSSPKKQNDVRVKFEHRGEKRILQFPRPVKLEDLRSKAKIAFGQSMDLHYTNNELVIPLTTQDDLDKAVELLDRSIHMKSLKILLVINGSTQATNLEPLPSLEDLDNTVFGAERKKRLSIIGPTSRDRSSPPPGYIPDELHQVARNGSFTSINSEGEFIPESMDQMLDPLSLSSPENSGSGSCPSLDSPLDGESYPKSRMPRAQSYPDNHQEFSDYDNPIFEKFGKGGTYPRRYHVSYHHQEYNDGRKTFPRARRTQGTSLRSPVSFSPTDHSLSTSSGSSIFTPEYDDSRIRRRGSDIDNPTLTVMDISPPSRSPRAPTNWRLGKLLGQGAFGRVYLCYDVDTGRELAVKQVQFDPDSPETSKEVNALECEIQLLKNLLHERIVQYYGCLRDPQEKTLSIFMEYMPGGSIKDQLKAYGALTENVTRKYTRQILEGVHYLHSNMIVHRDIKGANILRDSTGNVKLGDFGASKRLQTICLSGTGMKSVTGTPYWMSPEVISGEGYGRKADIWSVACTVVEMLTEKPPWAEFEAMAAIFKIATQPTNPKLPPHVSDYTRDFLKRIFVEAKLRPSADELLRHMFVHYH", "assay": "Selectivity interaction (LanthaScreen Eu Kinase Binding Assay) EUB0001632a MAP3K2", "conditions": "at 10 µM"}, "[13]": {"biological_target": "Cyclin-dependent kinase 18 (Homo sapiens) (UniProt Q07002)", "assay": "Selectivity interaction (KinomeScan (DiscoverX)) EUB0000695a CDK18", "conditions": "at 100 nM"}, "[14]": {"biological_target": "T3, Serine/threonine-protein kinase MAK (Homo sapiens) (UniProt P20794)", "T3 sequence (whole entry)": "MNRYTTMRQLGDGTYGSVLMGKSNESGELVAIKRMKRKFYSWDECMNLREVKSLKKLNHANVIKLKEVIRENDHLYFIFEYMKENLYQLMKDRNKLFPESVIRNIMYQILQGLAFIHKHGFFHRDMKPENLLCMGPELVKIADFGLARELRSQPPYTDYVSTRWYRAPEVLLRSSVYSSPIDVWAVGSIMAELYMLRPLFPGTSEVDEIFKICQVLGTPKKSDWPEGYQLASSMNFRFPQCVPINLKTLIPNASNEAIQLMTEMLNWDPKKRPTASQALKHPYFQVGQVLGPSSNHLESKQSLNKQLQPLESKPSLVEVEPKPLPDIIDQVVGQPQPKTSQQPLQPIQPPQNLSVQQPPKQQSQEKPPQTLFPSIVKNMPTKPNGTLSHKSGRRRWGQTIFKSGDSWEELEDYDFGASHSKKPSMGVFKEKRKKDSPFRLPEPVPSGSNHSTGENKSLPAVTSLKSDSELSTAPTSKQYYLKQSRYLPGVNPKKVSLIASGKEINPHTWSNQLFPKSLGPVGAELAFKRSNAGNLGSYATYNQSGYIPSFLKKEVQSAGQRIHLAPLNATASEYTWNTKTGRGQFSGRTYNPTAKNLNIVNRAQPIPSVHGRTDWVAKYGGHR", "assay": "Selectivity interaction (KinomeScan (DiscoverX)) EUB0000695a MAK", "conditions": "at 100 nM"}}, "data": [{"compound": "CN(C)C/C=C/C(=O)Nc1ccc(C(=O)N2CCCC(Nc3ncc(Cl)c(-c4c[nH]c5ccccc45)n3)C2)cc1", "note": "(stereo not given)", "values": [{"measurement": "% of control", "setting": "[1]", "value": 91, "unit": "%"}]}, {"compound": "O[C@H]1CC[C@H](Nc2ncc3nc(Nc4c(F)cc(F)cc4F)n([C@H]4CCOC4)c3n2)CC1", "values": [{"measurement": "% of control", "setting": "[2]", "value": 81, "unit": "%"}]}, {"compound": "CNC(=O)Nc1ccc(-c2nc(N3CC4CCC(C3)O4)c3cnn(C4CCC5(CC4)OCCO5)c3n2)cc1", "values": [{"measurement": "% of control", "setting": "[3]", "value": 100, "unit": "%"}, {"measurement": "% of control", "setting": "[4]", "value": 100, "unit": "%"}, {"measurement": "% of control", "setting": "[5]", "value": 91, "unit": "%"}, {"measurement": "% of control", "setting": "[6]", "value": 73, "unit": "%"}]}, {"compound": "N#Cc1cccc(-c2c[nH]c3ncnc(N4CCOCC4)c23)c1", "values": [{"measurement": "% of inhibition", "setting": "[7]", "value": 1, "unit": "%"}]}, {"compound": "C=CC(=O)Nc1ccc(C(=O)Nc2[nH]nc3c2CN(C(=O)N[C@H](CN(C)C)c2ccccc2)C3(C)C)cc1", "values": [{"measurement": "% of engagement", "setting": "[8]", "value": 3.1, "unit": "%"}]}, {"compound": "Cc1cc(CN)cc(C)c1-c1ncn(C)c1-c1cncn1C", "values": [{"measurement": "% activity", "setting": "[9]; at 1 µM", "value": "> 90", "unit": "%"}, {"measurement": "% activity", "setting": "[9]; at 10 µM", "value": "> 80", "unit": "%"}]}, {"compound": "COc1cc(N(C)c2ccnc3ccc(C(F)(F)F)cc23)cc(OC)c1OC", "values": [{"measurement": "% binding", "setting": "[10]", "value": 92, "unit": "%"}]}, {"compound": "O=C(NOC[C@H](O)CO)c1ccc(F)c(F)c1Nc1ccc(I)cc1F", "values": [{"measurement": "% of control", "setting": "[11]", "value": 94, "unit": "%"}]}, {"compound": "Cn1cc(-n2cnc3c(NCc4nc5cc(Cl)c(Cl)cc5[nH]4)nc(N4CCOCC4)nc32)cn1", "values": [{"measurement": "% of inhibition", "setting": "[12]", "value": -3.79, "unit": "%"}]}, {"compound": "Cc1cc(F)c(C(=O)Nc2cccc(-c3nncn3C(C)C)n2)cc1-n1cnc(C2CC2)c1", "values": [{"measurement": "% of control", "setting": "[13]", "value": 91, "unit": "%"}, {"measurement": "% of control", "setting": "[14]", "value": 100, "unit": "%"}]}]}
